Measured values from ChEMBL document CHEMBL5523764, “Discovery of NO Donor-Aurovertin Hybrids as Dual Ferroptosis and Apoptosis Inducers for Treating Triple Negative Breast Cancer” (J Med Chem, 2024).
Calls of active or inactive are those of the source. The rule behind the calls is not given here.

Key:
[1] = system: MDA-MB-231; assay: Antiproliferative activity against human MDA-MB-231 cells assessed as reduction in cell viability incubated for 72 hrs by MTT assay; type: functional, cell-based; conditions: MDA-MB-231, 72 h
[2] = system: 4T1; assay: Antiproliferative activity against mouse 4T1 cells assessed as reduction in cell viability incubated for 72 hrs by MTT assay; type: functional, cell-based; conditions: 4T1, 72 h
[3] = Selectivity index, ratio of IC50 for cytotoxicity against human MCF-10A cells to IC50 for antiproliferative activity against human MDA-MB-231 cells; type: toxicity, cell-based; conditions: MCF-10A cells versus MDA-MB-231 cells, read-out: Ratio IC50
[4] = system: MDA-MB-468; assay: Antiproliferative activity against human MDA-MB-468 cells assessed as reduction in cell viability incubated for 72 hrs by MTT assay; type: functional, cell-based; conditions: MDA-MB-468, 72 h
[5] = system: MCF7; assay: Antiproliferative activity against human MCF7 cells assessed as reduction in cell viability incubated for 72 hrs by MTT assay; type: functional, cell-based; conditions: MCF7, 72 h
[6] = system: MDA-MB-231; assay: Induction of apoptosis in human MDA-MB-231 cells assessed as viable cells at 0.5 uM by Annexin V-FITC staining based flow cytometric analysis (reference value: 91.03%); type: functional; conditions: read-out: Activity
[7] = system: MDA-MB-231; assay: Induction of apoptosis in human MDA-MB-231 cells assessed as late apoptotic cells at 0.5 uM by Annexin V-FITC staining based flow cytometric analysis (reference value: 0.02 %); type: functional
[8] = system: MDA-MB-231; assay: Induction of apoptosis in human MDA-MB-231 cells assessed as necrotic cells at 0.5 uM by Annexin V-FITC staining based flow cytometric analysis (reference value: 7.98 %); type: functional
[9] = system: MDA-MB-231; assay: Induction of apoptosis in human MDA-MB-231 cells assessed as viable cells at 1 uM by Annexin V-FITC staining based flow cytometric analysis (reference value: 91.03%); type: functional; conditions: read-out: Activity
[10] = system: MDA-MB-231; assay: Induction of apoptosis in human MDA-MB-231 cells assessed as upregulation of cleaved caspase-3 expression at 0.25 to 1 uM by Western blot analysis; type: functional, cell-based; conditions: dose 0.25-1 µM
[11] = system: MDA-MB-231; assay: Downregulation of caspase-8 expression in human MDA-MB-231 cells at 0.25 to 1 uM by Western blot analysis; type: functional, cell-based; conditions: dose 0.25-1 µM
[12] = system: MDA-MB-231; assay: Inhibition of Bcl2 expression in human MDA-MB-231 cells at 0.25 to 1 uM by Western blot analysis; type: functional, cell-based; conditions: dose 0.25-1 µM
[13] = system: MDA-MB-231; assay: Upregulation of Bid expression in human MDA-MB-231 cells at 0.25 to 1 uM by Western blot analysis; type: functional, cell-based; conditions: dose 0.25-1 µM
[14] = system: MDA-MB-231; assay: Induction of lipid ROS accumulation in human MDA-MB-231 cells incubated for 24 hrs by BODIPY-C11 probe based flow cytometric analysis; type: functional, cell-based; conditions: dose 0.25-1 µM
[15] = system: Mitochondria; assay: Induction of ROS accumulation in mitochondria of human MDA-MB-231 cells at 0.25 to 1 uM by MitoSOX probe based flow cytometric analysis; type: functional; conditions: dose 0.25-1 µM
[16] = system: MDA-MB-231; assay: Induction of ferroptosis in human MDA-MB-231 cells assessed as decrease in FTH1 expression by Western blot analysis; type: functional, cell-based; conditions: dose 0.25-1 µM
[17] = system: MDA-MB-231; assay: Antiproliferative activity against human MDA-MB-231 cells assessed as inhibition of cell growth at 0.01 to 100 uM incubated for 72 hrs in presence of Fer-1 by MTT assay; type: functional, cell-based; conditions: dose 0.01-100 µM
[18] = system: MDA-MB-231; assay: Induction of lipid ROS accumulation in human MDA-MB-231 cells incubated for 24 hrs in presence of Fer-1 by BODIPY-C11 probe based flow cytometric analysis; type: functional, cell-based
[19] = system: MDA-MB-231; assay: Induction of ferroptosis in human MDA-MB-231 cells assessed as decrease in GPX4 expression in presence of Fer-1 by Western blot analysis; type: functional, cell-based
[20] = system: MDA-MB-231; assay: Induction of ferroptosis in human MDA-MB-231 cells assessed as decrease in FTH1 expression in presence of Fer-1 by Western blot analysis; type: functional, cell-based
[21] = Toxicity in nude mouse xenografted with human MDA-MB-231 cells assessed as effect on body weight at 10 to 20 mg/kg, ip administered for 30 days; type: organism-based; conditions: in vivo, 720 h, dose 10-20 mg/kg, time 30 day
[22] = system: MDA-MB-231; assay: Antitumor activity against human MDA-MB-231 cells xenografted in nude mouse assessed as reduction in tumor volume at 10 to 20 mg/kg, ip administered for 30 days; type: functional, organism-based; conditions: dose 10-20 mg/kg, time 30.0 day
[23] = system: MDA-MB-231; assay: Antitumor activity against human MDA-MB-231 cells xenografted in nude mouse assessed as reduction in tumor weight at 10 mg/kg, ip administered for 30 days relative to control; type: functional; set-up: scale not given: the % may be the effect or the level left; conditions: time 30 day
[24] = system: MDA-MB-231; assay: Antitumor activity against human MDA-MB-231 cells xenografted in nude mouse assessed as reduction in tumor weight at 20 mg/kg, ip administered for 30 days relative to control; type: functional; set-up: scale not given: the % may be the effect or the level left; conditions: time 30 day
[25] = system: MDA-MB-231; assay: Inhibition of cell adhesion in human MDA-MB-231 cells assessed as rounded form appearance of cells at 0.02 to 0.5 uM incubated for 24 hrs by microscopic analysis; type: functional, cell-based; conditions: dose 0.02-0.5 µM
[26] = system: MDA-MB-231; assay: Antiinvasive activity against human MDA-MB-231 cells assessed as inhibition of cell invasion at 0.5 uM measured after 24 hrs by crystal violet staining based transwell invasion assay relative to control; type: functional
[27] = system: 4T1; assay: Downregulation of phosphorylated AKT protein level at Ser473 residue in mouse 4T1 cells at 0.02 to 2.5 uM incubated for 24 hrs by Western blot analysis; type: functional, cell-based; conditions: dose 0.02-2.5 µM
[28] = system: 4T1; assay: Downregulation of phosphorylated mTOR protein level at Ser2448 residue in mouse 4T1 cells at 0.02 to 2.5 uM incubated for 24 hrs by Western blot analysis; type: functional, cell-based; conditions: dose 0.02-2.5 µM
[29] = Acute toxicity in female ICR mouse assessed as kidney pathological abnormalities at 50 mg/kg, ip measured after 2 days; type: organism-based; conditions: in vivo, 48 h, time 2 day
[30] = Acute toxicity in female ICR mouse assessed as spleen pathological abnormalities at 50 mg/kg, ip measured after 2 days; type: organism-based; conditions: in vivo, 48 h, time 2 day

CC[C@H]1O[C@@]2(C)[C@H](OC(C)=O)[C@@]1(C)O[C@@H](/C=C/C=C/C=C/c1oc(=O)cc(OC)c1C)[C@@H]2OC(=O)CCC(=O)OC/C=C/COc1no[n+]([O-])c1S(=O)(=O)c1ccccc1
IC50 [1]: 630 nM | IC50 [2]: 870 nM | selectivity ratio [3]: > 79 | IC50 [4]: 450 nM | IC50 [5]: > 50000 nM | viability at 0.5 µM [6]: 75.3% | Activity [7]: 8.01% | Activity [8]: 0.44% | viability at 1 µM [9]: 47% | Activity [10]: Active | Activity [11]: Active | inhibition [12]: Active | Activity [13]: Active | Activity [14]: Dose-Dependent Effect | Activity [15]: Active | Activity [16]: Dose-Dependent Effect | Activity [17]: inactive | Activity [18]: inactive | Activity [19]: inactive | Activity [20]: inactive | Activity [21]: Non-Toxic | Activity [22]: Active | Activity [23]: 86% | Activity [24]: 91% | inhibition [25]: Active | inhibition at 0.5 µM [26]: 60.7% | Activity [27]: Active | Activity [28]: Active | Activity [29]: Non-Toxic | Activity [30]: Non-Toxic
